These results are taken from PMC7037731, “Synthesis, Anticancer Activity, and Preliminary Pharmacokinetic Evaluation of 4,4-Disubstituted Curcuminoid 2,2-bis(Hydroxymethyl)Propionate Derivatives” (Molecules, 2020).

The test system of series [1] is MDA-MB-231. As to the kind of experiment: MTT anti-proliferative assay, MDA-MB-231. The series is classed as cell-based. The following applies: Homo sapiens, 48 h treatment, MTT, mean ± SD of at least three experiments, read-out: IC50 (M)/ 48 h MDA-MB-231. As to the method: (§1) These compounds, along with all newly synthesized compounds, were screened for anti-proliferative activity against the same TNBC and colon cancer cell lines.
(§2) Cell viability was evaluated by measuring the reduction in MTT to yield blue formazan. Cells were cultured in 96-well plates, allowed to attach overnight, and then treated with compounds. After treatment, MTT solution (1 mg/mL) was added to each well, and plates were incubated for another 2 h. Medium was removed, blue formazan was dissolved in DMSO, and the absorbance was read at 570 nm by Multiskan Go spectrophotometer (Thermo Scientific, Madison, WI, USA).
Background: Tetrazolium dyes change colour on reduction, which living cells bring about.

For series [2], the system named is HCT-116. As to the kind of experiment: MTT anti-proliferative assay, HCT-116. It counts as cell-based. The following applies: Homo sapiens, 48 h treatment, MTT, mean ± SD of at least three experiments, read-out: IC50 (M)/ 48 h HCT-116. As to the method: as §1, §2
Series [3] deals with MDA-MB-231. The note with it: MDA-MB-231 in vitro and in vivo; cited from earlier work.
Series [4] relates to HCT-116 colon tumor xenograft. As to the kind of experiment: In vivo antitumor activity, HCT-116 colon tumor xenograft bearing nude mice. Details: species or system nu/nu mice. The following applies: 30 days. The method, then:
(§3) The therapeutic effect of 2 was evaluated on HCT-116 colon tumor xenograft bearing nude mice. The oral administration of 2 at doses of 50, 100, or 150 mg/kg bw per day were performed after tumors reached approximately 100 mm^3 and continued for 30 consecutive days. 5-Fluorouracil treatment (30 mg/kg bw, i.p., QOD) was used as a positive control. […] There was a clear dose- and time-dependent inhibitory effect on tumor size in the other two groups, in which at 50 and 150 mg/kg doses the volume of the HCT-116 colon tumor was reduced to 73% and 40% of the control, respectively (Figure 2). The body weight of the mice was recorded prior to dosing every 3 d, and the average body weight of each group is depicted in Figure 3. Otherwise, they were monitored for visible signs of toxicity and behavioral changes 1 h after each administration.
Male nu/nu mice (5 weeks old) from National Laboratory Animal Center (Taipei, Taiwan) were maintained under the procedures and guidelines provided by the Institutional Animal Care and Use Committee of the National Health Research Institutes (Taipei, Taiwan). All experiments were supervised under the Institutional Animal Care and Use Committee, China Medical University, Taichung, Taiwan with a protocol number ([…]-2018-278). HCT-116 colon cancer cells (5 × 10^6 cells per mouse) were suspended in 0.1 mL of Matrigel solution (50% v/v Matrigel in PBS) and inoculated into the mammary fat pads of the mice. When the tumor size reached 100 mm^3, the tumor-bearing mice were randomly divided into four groups for treating with vehicle (5% ethanol and 10% tween 80 in 85% saline, 0.1 mL) and 2 (p.o. 50, 100 and 150 mg/kg/day body weight) respectively. Compounds was administered via oral route daily for 30 days. 5-Fluorouracil-treated group (i.p. 30 mg/kg) is the positive control. Tumor size and mouse body weight were measured once every 3 days, and tumor volume (mm^3) was calculated using the equation: length × (width)^2 × 0.5. At the end of experiments, mice were sacrificed.

Series [5] is described as follows: Preliminary pharmacokinetic evaluation of 2 in rat (LC-MS of serum). The series is classed as in vivo, Sprague-Dawley rats. The note with it: for time of maximum blood content: LC signal in serum. The method, then: Male Sparague-Dawley rat (420 g) from National Laboratory Animal Center, Taipei, Taiwan were maintained under the regulations of the Institutional Animal Care and Use Committee of the National Health Research Institutes, Taiwan. The animal studies were supervised under the Institutional Animal Care and Use Committee, China Medical University, Taichung, Taiwan with a protocol number ([…]-2018-278). Rat was fasted for 16 h before dosing. Compound 2 was dissolved in aqueous solution (5% ethanol and 10% Tween80 in 85% saline) and administrated via oral gavage at a dosage of 100 mg/kg. Blood samples were collected at selected time points (5, 10, 20, 30, 60, 120, 240, 360, 480 min) post dose and centrifuged at 10,000× g for 15 min to provide serum samples, which were stored at −80 °C until subsequent sample extraction.
Methods for the preparation of 2, 2m, 18, 19, 20 and 21 serum sample are delineated as follows. 50 μL of acetate buffer (pH 5.0), 50 μL of ascorbic acid (200 mg/mL), and 50 μL of 0.1 N HCl solution was added into 100 μL of serum which was collected at different time points). The resulting mixture was partitioned with 250 μL of ethyl acetate (containing 5.0 μg/mL of butyl paraben as the internal standard). After centrifuging at 10,000× g for 15 min, the upper organic layer was separated and dried under nitrogen gas to provide the crude sample, which was diluted with an appropriate volume of acetonitrile for LC-MS analysis.
The amount of 22 and 23 were analyzed by the serum samples before and after treatment with enzyme solution. The procedure for enzyme treatment is shown as follows. 100 μL of serum was treated with enzyme solution (50 μL; containing 1000 units/mL of sulfatase and 39861 units/mL of β-glucuronidase in pH 5.0 acetate buffer), 50 μL of 0.1 N HCl solution and 50 μL of ascorbic acid (200 mg/mL) in the light protected tubes at 37 °C. For optimal hydrolysis efficiency, the incubation time was decided as 2 h based on a previous study. The mixture was then partitioned with 250 μL of ethyl acetate (containing 5.0 μg/mL of butyl paraben as the internal standard). After centrifuging at 10,000× g for 15 min, the upper organic layer was separated and dried under nitrogen gas to provide the crude sample, which was diluted with an appropriate volume of acetonitrile for LC analysis.
All samples obtained from in vivo pharmacokinetic studies were assayed using LC-MS for the analysis of 2 and the corresponding metabolites. The Waters ACQUITY UPLC I-Class system (Waters Corp., Milford, MA, USA) was utilized. System control and all of the mass spectrometry data were acquired and analyzed using UNIFI software (Waters Corp.). For sample separation, the LC was equipped with an Inertsil ph-3 (50 × 2.1 mm, 2 μm particle size) RPLC column (GL Sciences Inc. Tokyo, Japan) in which the column temperature was held at 35 °C, injection volume was 7.5 μL, and the flow rate of the mobile phase was 200 μL/min. The elution started from 50% mobile phase A (ultrapure water + 0.1% formic acid) and 50% mobile phase B (100% methanol + 0.1% formic acid), held at 50% B for 0.5 min, raised to 95% B in 5.5 min, held at 95% B for 1 min, and then lowered to 50% B in 1 min. Before sample injection, the column was equilibrated by pumping 50% B for 4 min. The analysis of target compounds for all samples was performed by using a Waters Vion IMS QTof mass spectrometer. Data were acquired in the electrospray ionization (ESI) positive ion MS^E mode with range of m/z 100–1000 and 0.5 s scan time. Parameters were set as capillary voltage of 2.5 kV, source temperature of 100 °C, desolvation temperature at 250 °C, cone gas maintained at 10 L/h, desolvation gas maintained at 600 L/h. The acquired m/z and isotope pattern were processed by UNIFI software to illustrate chromatogram, and the amounts of compound was calculated with the integrated peak area of signals.

Series [6] in a line: Solubility in aqueous dosing vehicle. It counts as physicochemical. The note with it: aqueous with cosolvent or surfactant or cyclodextrin, 5% ethanol, 10% Tween 80, 85% saline, read-out: maximum solubility in aqueous vehicle. An excerpt:
Subsequently, the latter would be converted into glucuronide 22 and sulfate 23 through the phase II metabolism conjugation of hydrogenated products 18, 19, 20, and 21 via the phase I metabolic pathway (Scheme 6). To verify our assumptions, the preliminary pharmacokinetic evaluation of 2 was executed.

A short description of series [7]: Visible signs of toxicity and behavioral changes in xenograft mice. It counts as in vivo. The note with it: 50, 100, 150 mg/kg p.o. daily, 30 days, vs control groups. The method, then: as §3
Male nu/nu mice (5 weeks old) from National Laboratory Animal Center (Taipei, Taiwan) were maintained under the procedures and guidelines provided by the Institutional Animal Care and Use Committee of the National Health Research Institutes (Taipei, Taiwan). […] Tumor size and mouse body weight were measured once every 3 days, and tumor volume (mm^3) was calculated using the equation: length × (width)^2 × 0.5. […]

A short description of series [8]: Chemical stability on storage. It counts as physicochemical. The note with it: storage at 4 °C; DMSO-d6 1 week at room temperature. An excerpt: The low stability of 9 may have been due to self- or cross-hydrolysis, such that the two hydroxyl groups at the C-4 alkyl chains cleaved the ester linkage of the 2,2-bis(hydroxymethyl)propionate group. […] Therefore, we modified the hydroxymethyl group of 9 and were able to produce compounds 10 and 11. To prepare 10, compound 9 was acetylated with acetyl chloride in the presence of Et3N, and the resulting di-acetylation intermediate was hydrolyzed by hydrochloric acid. Compound 11 was obtained with an overall yield of 5% following a similar three-step reaction modified for methylation. The stability of these two products at room temperature may have been due to the conversion of the labile hydroxyl groups of the C-4 alkyl chains of 10 and 11 into non-nucleophilic […] groups, respectively, which prevented degradation.

Converted amounts (≈) assume the structure as drawn.

`COc1cc(/C=C/C(=O)/C=C(O)/C=C/c2ccc(OC(=O)C(C)(CO)CO)c(OC)c2)ccc1OC(=O)C(C)(CO)CO` [Compound 1, curcumin di-O-2,2-bis(hydroxymethyl)propionate]: the IC50 in series [1] was 3.06e-06 ± 1.8e-07 M; in series [2], 6.25e-06 ± 6e-07 M. Further, the “potency relative to curcumin (times)” value in series [3] was 8 to 10.
On to `COc1cc(/C=C/C(=O)C(C)(C)C(=O)/C=C/c2ccc(OC(=O)C(C)(CO)CO)c(OC)c2)ccc1OC(=O)C(C)(CO)CO` [Compound 2], for which the IC50 in series [1] amounted to 2.25e-06 ± 1e-07 M; in [2] it was 3.1e-06 ± 2.9e-07 M. The results for the “tumor volume as % of the control” value in series [4] (50 mg/kg p.o. daily) and in [4] (150 mg/kg p.o. daily) were 73% and 40%, respectively. The tumor volume reduction in [4] (50 mg/kg p.o. daily, vs control) is recorded as 27%; in [4] (150 mg/kg p.o. daily, vs control), 60%. Also, the “tumor volume reduction / tumor inhibition ratio” value in [4] (100 mg/kg p.o. daily, vs control) amounted to 45%. In series [5] (after oral 2 at 100 mg/kg), the “time of second highest blood content” value amounted to 120 min. Moreover, the “time of third highest blood content” value in series [5] (after oral 2 at 100 mg/kg) is reported as 360 min. Also, the “time of maximum blood content” value in series [5] (after oral 2 at 100 mg/kg) was determined as 20 min. Besides, the “plasma stability compared to curcumin” value in [5] (oral 100 mg/kg) is recorded as “superior plasma stability”. The solubility (as a rule, the concentration that dissolves in the medium under given conditions) in [6] is approximately 200 mg/mL (≈ 318 mM). Besides, the “adverse effects (visible signs of toxicity, behavioral changes)” value in [7] is “No obvious adverse effects”.
Turning to `COc1cc(/C=C/C(=O)C(C)(C)C(=O)/C=C/c2ccc(O)c(OC)c2)ccc1O` [Compound 2m, (1E,6E)-1,7-bis(4-Hydroxy-3-methoxyphenyl)-4,4-dimethylhepta-1,6-diene-3,5-dione], the melting point (as a rule, the temperature, or range, at which the solid turns liquid) was 104 to 106 °C. In addition, the IC50 in series [1] was found to be 4.17e-06 ± 1.5e-07 M. For the same compound, in series [2], the IC50 was 2.17e-06 ± 1.6e-07 M. Further, in [5] (after oral 2 at 100 mg/kg), the “time from which the metabolite emerged in blood” value stood at 10 min and the “time of maximum blood content” value was 120 min.
Turning to `COc1cc(/C=C/C(=O)C(CO)(CO)C(=O)/C=C/c2ccc(OC(=O)C(C)(CO)CO)c(OC)c2)ccc1OC(=O)C(C)(CO)CO` [Compound 9, [(1E,6E)-4,4-bis(Hydroxymethyl)-3,5-dioxohepta-1,6-diene-1,7-diyl]bis(2-methoxy-4,1-phenylene) bis[3-hydroxy-2-(hydroxymethyl)-2-methylpropanoate]], the IC50 in [1] and in series [2] was more than 0.0001 M each time. In addition, in series [8], the “chemical stability” value is reported as “unstable”.
